Reference: the supplement of paper PMC10307832

Key:
Assay in all cases: relative viability (nuclei count vs DMSO), 5 days (fraction); higher = more cells survive
Sulindac + Foretinib = compound: CC1=C(CC(=O)O)c2cc(F)ccc2/C1=C\c1ccc([S+](C)[O-])cc1 [Sulindac] + COc1cc2c(Oc3ccc(NC(=O)C4(C(=O)Nc5ccc(F)cc5)CC4)cc3F)ccnc2cc1OCCCN1CCOCC1 [Foretinib] (partner 0.25 µM)
Procedure, shortened: (§1)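 Medians of duplicate plates are given as relative viability. That measure is the nuclei count in treated wells divided by the count in vehicle wells. Counts were taken on 4× images of lung cancer cell lines in 1536-well plates, 5 days after pin-tool dosing the day after seeding with one drug alone or a fixed anchor-drug dose plus five library-drug doses (not always all listed) in √10 steps.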

Sulindac + OSI-027 = compound: CC1=C(CC(=O)O)c2cc(F)ccc2/C1=C\c1ccc([S+](C)[O-])cc1 [Sulindac] + COc1cccc2cc(-c3nc([C@H]4CC[C@H](C(=O)O)CC4)n4ncnc(N)c34)[nH]c12 [OSI-027] (partner 0.5 µM)
Procedure, shortened: as §1

[1] = compound: O=c1[nH]cc(F)c(=O)[nH]1 [5-Fluorouracil] + C[C@]1(O)C[C@@H](c2nc(-c3ccc4ccc(-c5ccccc5)nc4c3)c3c(N)nccn32)C1 [Linsitinib] (partner 1 µM)
Procedure, shortened: as §1

Sulindac + Trametinib = compound: CC1=C(CC(=O)O)c2cc(F)ccc2/C1=C\c1ccc([S+](C)[O-])cc1 [Sulindac] + CC(=O)Nc1cccc(-n2c(=O)n(C3CC3)c(=O)c3c(Nc4ccc(I)cc4F)n(C)c(=O)c(C)c32)c1 [Trametinib] (partner 0.02 µM)
Procedure, shortened: as §1

PC-14 was tested, and the relative viability (Sulindac + Foretinib; first compound 0.08 µM) was 1.07, the relative viability (Sulindac + Foretinib; first compound 0.253 µM) was 1.14 and the relative viability (Sulindac + Foretinib; first compound 0.8 µM) was 0.671. It also gave a relative viability (Sulindac + Foretinib; first compound 2.53 µM) of 1.04, a relative viability (Sulindac + Foretinib; first compound 8 µM) of 1.01 and a relative viability (Sulindac + OSI-027; first compound 0.08 µM) of 1.3. The relative viability (Sulindac + OSI-027; first compound 0.253 µM) was 1.2, the relative viability (Sulindac + OSI-027; first compound 2.53 µM) was 0.886 and the relative viability (Sulindac + OSI-027; first compound 8 µM) was 1.09. The relative viability ([1]; first compound 0.02 µM) was 0.938, the relative viability ([1]; first compound 0.2 µM) was 0.943 and the relative viability ([1]; first compound 0.6325 µM) was 0.765. The relative viability (Sulindac + Trametinib; first compound 0.08 µM) was 0.908, the relative viability (Sulindac + Trametinib; first compound 0.253 µM) was 0.772 and the relative viability (Sulindac + Trametinib; first compound 0.8 µM) was 0.745. It also gave a relative viability (Sulindac + Trametinib; first compound 2.53 µM) of 0.779 and a relative viability (Sulindac + Trametinib; first compound 8 µM) of 1.01.
With RERF-LC-KJ the relative viability (Sulindac + Foretinib; first compound 0.08 µM) was 1.03, the relative viability (Sulindac + Foretinib; first compound 0.253 µM) was 0.934 and the relative viability (Sulindac + Foretinib; first compound 0.8 µM) was 0.65. It also gave a relative viability (Sulindac + Foretinib; first compound 2.53 µM) of 0.856, a relative viability (Sulindac + Foretinib; first compound 8 µM) of 0.927 and a relative viability (Sulindac + OSI-027; first compound 0.08 µM) of 0.681. It also gave a relative viability (Sulindac + OSI-027; first compound 0.253 µM) of 0.671, a relative viability (Sulindac + OSI-027; first compound 0.8 µM) of 0.551 and a relative viability (Sulindac + OSI-027; first compound 2.53 µM) of 0.569. The relative viability (Sulindac + OSI-027; first compound 8 µM) was 0.587, the relative viability ([1]; first compound 0.02 µM) was 0.832 and the relative viability ([1]; first compound 0.2 µM) was 0.775. It also gave a relative viability ([1]; first compound 0.6325 µM) of 0.792, a relative viability ([1]; first compound 2 µM) of 0.764 and a relative viability (Sulindac + Trametinib; first compound 0.08 µM) of 0.99. The relative viability (Sulindac + Trametinib; first compound 0.253 µM) was 0.928, the relative viability (Sulindac + Trametinib; first compound 0.8 µM) was 0.778 and the relative viability (Sulindac + Trametinib; first compound 2.53 µM) was 0.877. It also gave a relative viability (Sulindac + Trametinib; first compound 8 µM) of 0.933.
SK-LU-1 showed a relative viability (Sulindac + Foretinib; first compound 0.08 µM) of 0.981, a relative viability (Sulindac + Foretinib; first compound 0.253 µM) of 0.977 and a relative viability (Sulindac + Foretinib; first compound 0.8 µM) of 0.993. It also gave a relative viability (Sulindac + Foretinib; first compound 2.53 µM) of 0.751, a relative viability (Sulindac + Foretinib; first compound 8 µM) of 0.955 and a relative viability (Sulindac + OSI-027; first compound 0.08 µM) of 0.305. The relative viability (Sulindac + OSI-027; first compound 0.253 µM) was 0.343, the relative viability (Sulindac + OSI-027; first compound 0.8 µM) was 0.295 and the relative viability (Sulindac + OSI-027; first compound 2.53 µM) was 0.316. The relative viability (Sulindac + OSI-027; first compound 8 µM) was 0.351, the relative viability ([1]; first compound 0.02 µM) was 1.23 and the relative viability ([1]; first compound 0.2 µM) was 1.08. For the same cell line, the relative viability ([1]; first compound 0.6325 µM) was 1.13, the relative viability ([1]; first compound 2 µM) was 0.941 and the relative viability (Sulindac + Trametinib; first compound 0.08 µM) was 0.657. It also gave a relative viability (Sulindac + Trametinib; first compound 0.253 µM) of 0.486, a relative viability (Sulindac + Trametinib; first compound 0.8 µM) of 0.435 and a relative viability (Sulindac + Trametinib; first compound 2.53 µM) of 0.398. The relative viability (Sulindac + Trametinib; first compound 8 µM) was 0.529.
SK-MES-1 gave a relative viability (Sulindac + Foretinib; first compound 0.08 µM) of 1.13, a relative viability (Sulindac + Foretinib; first compound 0.253 µM) of 1.38 and a relative viability (Sulindac + Foretinib; first compound 0.8 µM) of 0.372. The relative viability (Sulindac + Foretinib; first compound 2.53 µM) was 0.88, the relative viability (Sulindac + Foretinib; first compound 8 µM) was 1.02 and the relative viability (Sulindac + OSI-027; first compound 0.08 µM) was 0.781. It also gave a relative viability (Sulindac + OSI-027; first compound 0.253 µM) of 0.823, a relative viability (Sulindac + OSI-027; first compound 0.8 µM) of 0.55 and a relative viability (Sulindac + OSI-027; first compound 2.53 µM) of 0.609. The relative viability (Sulindac + OSI-027; first compound 8 µM) was 0.631, the relative viability ([1]; first compound 0.02 µM) was 1.07 and the relative viability ([1]; first compound 0.2 µM) was 0.799. For the same cell line, the relative viability ([1]; first compound 0.6325 µM) was 0.433, the relative viability ([1]; first compound 2 µM) was 0.337 and the relative viability (Sulindac + Trametinib; first compound 0.08 µM) was 0.563. For the same cell line, the relative viability (Sulindac + Trametinib; first compound 0.253 µM) was 0.555, the relative viability (Sulindac + Trametinib; first compound 0.8 µM) was 0.538 and the relative viability (Sulindac + Trametinib; first compound 2.53 µM) was 0.561. For the same cell line, the relative viability (Sulindac + Trametinib; first compound 8 µM) was 0.579.
SW 1573 gave a relative viability (Sulindac + Foretinib; first compound 0.08 µM) of 1.19, a relative viability (Sulindac + Foretinib; first compound 0.253 µM) of 1.17 and a relative viability (Sulindac + Foretinib; first compound 0.8 µM) of 0.776. It also gave a relative viability (Sulindac + Foretinib; first compound 2.53 µM) of 0.788, a relative viability (Sulindac + Foretinib; first compound 8 µM) of 0.955 and a relative viability (Sulindac + OSI-027; first compound 0.08 µM) of 0.722. It also gave a relative viability (Sulindac + OSI-027; first compound 0.253 µM) of 0.676, a relative viability (Sulindac + OSI-027; first compound 2.53 µM) of 0.699 and a relative viability (Sulindac + OSI-027; first compound 8 µM) of 0.578. The relative viability ([1]; first compound 0.02 µM) was 0.734, the relative viability ([1]; first compound 0.2 µM) was 0.917 and the relative viability ([1]; first compound 0.6325 µM) was 0.782. The relative viability ([1]; first compound 2 µM) was 0.483, the relative viability (Sulindac + Trametinib; first compound 0.08 µM) was 0.601 and the relative viability (Sulindac + Trametinib; first compound 0.253 µM) was 0.645. It also gave a relative viability (Sulindac + Trametinib; first compound 0.8 µM) of 0.496, a relative viability (Sulindac + Trametinib; first compound 2.53 µM) of 0.371 and a relative viability (Sulindac + Trametinib; first compound 8 µM) of 0.75.
